Patent US9427437B2, “Hypercholesterolemia and tendinous injuries” (The Trustees of the University of Pennsylvania, priority 2008, dated 2016)

Tests used:
[1] = test system: partial tear of the patellar tendon; experiment: Patient case: oral atorvastatin for a partial tear of the patellar tendon in a hypercholesterolemic patient; format: in vivo, human; conditions: orally 20 mg once daily
Experimental: (§1) A person presents with a partial tear of the patellar tendon. Their orthopedist orders a standard lipid panel as part of their blood work. The orthopedist finds that the patient is hypercholesterolemic with a total cholesterol of almost 300 mg/DL. The orthopedist prescribes atorvastatin to be taken orally at a dose of 20 mg once daily.

[2] = test system: partial rupture of achilles tendon; experiment: Patient case: oral rosuvastatin for a partial rupture of the achilles tendon in a hypercholesterolemic patient; format: in vivo, human; conditions: orally 10 mg once daily
Experimental: as §1, with “diabetic” for “person”, “rupture” for “tear”, “their achilles” for “the patellar”, “285” for “almost 300”, “rosuvastatin” for “atorvastatin”, “10” for “20”

| Compound | recovery from partial tear of the patellar tendon ([1]; hypercholesterolemic person) | cholesterol lowering ([1]; person, total cholesterol almost 300 mg/DL at presentation) | cholesterol lowering ([2]; diabetic, total cholesterol 285 mg/DL at presentation) | recovery from partial rupture of achilles tendon ([2]; hypercholesterolemic diabetic) |
| --- | --- | --- | --- | --- |
| CC(C)c1c(C(=O)Nc2ccccc2)c(-c2ccccc2)c(-c2ccc(F)cc2)n1CC[C@@H](O)C[C@@H](O)CC(=O)O [atorvastatin] | markedly improved | lowering their cholesterol to acceptable levels |  |  |
| CC(C)c1nc(N(C)S(C)(=O)=O)nc(-c2ccc(F)cc2)c1/C=C/[C@@H](O)C[C@@H](O)CC(=O)O [rosuvastatin] |  |  | lowering their cholesterol to acceptable levels | markedly improved |
